Where two headings read alike, the source gives them in different places.
Assays:
H460 cells [1] = tested on: H460 cells
H460 cells [2] = assay: Intracellular activation of hypoxia activated prodrugs (drug metabolism in medium of cells, LC-MS/UV 370 nm); conditions: for Example 12 compound UV peak area (370 nm): drug only (no cells), ~30 μM, 3 hours 37° C
H460 cells [3] = assay: Clonogenic toxicity assay; format: cell-based, human; conditions: 2 hr compound exposure; for IC90: Homo sapiens, NCI-H460, normoxic (air) and anoxic, no significant difference
Protocol: The clonogenic assay measures the reproductive ability of a surviving cell by specifically determining if a cell can grow to form a colony of greater than 50 cells. Briefly, cells are treated with a drug for an acute exposure and then the drug is removed. Cells are trypinized to form single cell suspensions and known numbers of cells are plated and incubated until colonies form. Colonies are counted and the cell survival is calculated based on number of colonies formed in the treated groups compared to number of colonies formed in the untreated controls. […] The terms aerobic and normoxic are used interchangeably.
Exponentially growing human H460 cells (obtained from ATCC) were seeded into 60 mm notched glass plates between 2.5 and 5×10^5 cells per plate and grown in RPMI medium supplemented with 10% fetal bovine serum for 2 days prior to initiating treatment. On the day of the experiment drug stocks of known concentrations were prepared in complete medium and 2 ml added to each plate. Glass plates were sealed into airtight aluminum vessels equipped with a valve to control gas flow. To achieve complete equilibration between the gas phase and the liquid phase a series of gas exchanges were performed on each vessel while shaking. Vessels were evacuated and gassed with either a certified anoxic gas mixture (95% nitrogen and 5% carbon dioxide) or with aerobic gas mixture (95% air and 5% carbon dioxide). Specifically, each vessel was evacuated to minus 26 inches of mercury and held for 15 seconds before gassing at 20 psi and again holding for 15 seconds. After a series of five evacuations and gassings the vessels were held an additional 5 minutes before a final evacuation and refilling of each vessel with the desired gas mixture at 0.5 psi above atmospheric pressure. Cells were incubated for 2 hours at 37° C. […] The exact concentration of each stock was determined by counting with a Coulter Z2 particle counter. […] Colonies of greater than 50 cells were counted and the surviving fraction determined.

SMILES: CCC1(O)C(=O)OCc2c1cc1n(c2=O)Cc2cc3cc(OCc4cnc([N+](=O)[O-])n4C)ccc3cc2-1 (stereo not drawn) [Example 12]
- release of 10 hydroxycamptothecin (H460 cells [1]): no detectable release
- 10-Hydroxy Campothecin UV peak area (370 nm) (H460 cells [1]; 3 h, 30 uM): ~0
- selectivity of release mechanism (anoxic versus hypoxic) (H460 cells [2]; in words): highly selective
- degree of release (conversion to 10 hydroxy-camptothecin) (H460 cells [2]; trial 4: anoxic, with H460 cells): over half

SMILES: COc1cccc2c1C(=O)c1c(O)c3c(c(O)c1C2=O)C[C@@](O)(C(C)=O)C[C@@H]3O[C@H]1C[C@H](N)[C@H](O)[C@H](C)O1 [daunorubicin]
- toxicity difference between normoxic (air) and anoxic conditions (H460 cells [3]): no significant toxicity difference
- IC90 (H460 cells [3]; read-out: IC 90 (90% inhibition of colony formation)): 500 nM
- IC90 (H460 cells [3]; read-out: IC 90 data ranges over multiple experiments): 200 to 1000 nM

SMILES: CC[C@@]1(O)C(=O)OCc2c1cc1n(c2=O)Cc2cc3cc(O)ccc3nc2-1 [10-OH Camptothecin, 10-Hydroxycamptothecin, reference compound]
- Example 12 compound UV peak area (370 nm) (H460 cells [2]; aerobic): 0
- Example 12 compound UV peak area (370 nm) (H460 cells [2]; anoxic): 0

From patent US8299088B2, “Compositions and methods for treating cancer” (priority 2003, dated 2012)
